For 22 molecules, GI50 and TGI results are on record in PubChem BioAssay (NCI).

Assay in all cases: growth of human tumour cells (NCI), 48 h
Assay [1] relates to RXF 393 renal.
In assay [2] the test system is A549 NSCLC.
Assay [3] deals with CCRF-CEM leukemia.
Assay [4] has as its system ACHN renal.
The subject of assay [5] is 786-0 renal.
In assay [6] the test system is HT29 colon.
Assay [7] concerns M14 melanoma.
Assay [8] concerns SN12C renal.
Assay [9] has as its system T-47D breast.
Assay [10] relates to HCC-2998 colon.

Structures are written as SMILES.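 Interpolation was linear, between the two tested concentrations surrounding the appropriate level; five concentrations were tested over 48 hours in 96-well plates. GI50: concentration for 50% inhibition of growth. TGI is the concentration that stops growth completely.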

As to `Cc1ccc(C2C3Cc4ccccc4C3=NN2c2ccc(S(=O)(=O)NC(=O)Nc3ccccc3)cc2)cc1` (stereo unspecified), the GI50 was 16 µM in [1]; 12.7 µM in [2]; 17.8 µM in [3]; 14.1 µM in [4]; 12.8 µM in assay [5]; 24.3 µM in [6]. In addition, the GI50 is 17 µM in assay [7], 14 µM in assay [8] and 36.8 µM in [9]. The TGI in [1] is 38.5 µM; in assay [2], 27.8 µM; in assay [3], 46.6 µM; in assay [4], 27.5 µM; in assay [5], 36.5 µM; in assay [6], greater than 100 µM. Also, the TGI is 40.3 µM in assay [7], 26.9 µM in assay [8] and greater than 100 µM in assay [9].
With `CCc1cccc(NC(=O)c2cc(/C=C/c3ccccc3)[nH]c(=S)n2)c1`, the TGI in [1], in assay [2], in assay [3], in [4], in assay [5] and in [6] was greater than 100 µM each time. The TGI in assay [7], in assay [8] and in [10] was greater than 100 µM throughout.
Regarding `O=C(Nc1ccc(Cl)cc1)N1CCN(c2ccc3nncn3n2)CC1`, the GI50 in assay [1] is greater than 100 µM; in assay [4] it was 50.6 µM; in [5] it was greater than 100 µM; in [6], 60.7 µM; in assay [7] it was 56.2 µM; in assay [8], 72.4 µM. Also, the GI50 was 29.4 µM in assay [9] and 81.8 µM in [10]. Besides, the TGI in assay [1], in [4], in assay [5], in assay [6], in assay [7] and in assay [8] was greater than 100 µM in each case. For the same molecule, the TGI in [9] and in assay [10] was greater than 100 µM throughout.
With `Nc1cc(N)c2nc(-c3ccccc3)c(NCc3ccc(Cl)c(Cl)c3)nc2c1`, the GI50 in assay [1] is 3.06 µM; in assay [2] it was 10.8 µM; in assay [3] it was 0.133 µM; in [5], 13.1 µM; in [7], 15.7 µM; in assay [8] it was 5.98 µM. In assay [9], the GI50 is 19.4 µM. Further, the TGI in assay [1] was found to be 16.8 µM; in [2], 27.4 µM; in assay [3] it was 1.83 µM; in assay [5], 30.4 µM; in assay [7], 34.6 µM; in assay [8] it was 24 µM. Further, the TGI in assay [9] stood at 54.4 µM.
Consider `CCN(CC)CCCNc1cc(OC)c(OC)c2cccnc12`, for which the GI50 in assay [1] was 19.1 µM; in assay [2], 10.5 µM; in assay [4] it was 2.61 µM; in assay [5], 12 µM; in assay [6] it was 13.4 µM; in [7] it was 12.6 µM. Besides, the GI50 was 2.47 µM in assay [8], 16.4 µM in assay [9] and 11.9 µM in [10]. Further, the TGI in [1] amounted to 34.3 µM; in [2], 38.1 µM; in [4], 46.3 µM; in [5], 31.3 µM; in [6], 40.3 µM; in assay [7], 37.6 µM. Moreover, the values for the TGI in assay [8], in assay [9] and in [10] were 7.7 µM, 42 µM and 25.7 µM, respectively.
Turning to `O=C(OCc1ccccc1)n1cccc1`, the TGI in assay [1], in assay [2], in assay [3], in assay [4], in assay [5] and in assay [6] was greater than 100 µM in each case. The TGI in assay [7], in assay [8] and in assay [10] was greater than 100 µM throughout.
Take `Cc1cc(OCc2nn(CN3CCN(C)CC3)c(=S)n2/N=C/c2ccc(F)cc2)ccc1Cl`: the GI50 in assay [1] is 17.5 µM; in assay [2], 16.9 µM; in assay [3], 19.8 µM; in assay [4] it was 20.1 µM; in [5], 18.7 µM; in assay [7], 17.9 µM. Besides, the GI50 in [8] is 16.9 µM; in assay [9], 17 µM; in [10], 18.8 µM. The TGI in [1] is 31.9 µM; in assay [2], 31.3 µM; in assay [3], 43.4 µM; in [4] it was 34.3 µM; in assay [5], 34.1 µM; in [7], 33.1 µM. Also, the results for the TGI in [8], in [9] and in [10] were 31 µM, 39.7 µM and 33.1 µM, respectively.
In the case of `CC(=N\O)/C(C)=N/O.CC(=N\O)/C(C)=N/O.[Fe].[NH2-].c1c[nH]cn1`, the GI50 in assay [1], in assay [2], in assay [4], in [5], in assay [6] and in assay [7] was greater than 100 µM each time. The GI50 in assay [8] and in assay [9] was greater than 100 µM in each case. Further, the TGI in assay [1], in assay [2], in [4], in [5], in assay [6] and in assay [7] was greater than 100 µM each time. The TGI in [8] and in assay [9] was greater than 100 µM each time.
As for `CC(=N/NC(N)=S)/C(C)=N/NC(N)=S`, the TGI in assay [1], in assay [2], in assay [3], in assay [4], in [5] and in assay [6] was greater than 100 µM throughout. Also, the TGI in assay [7], in assay [8] and in assay [10] was greater than 100 µM in each case.
Consider `COc1cc(NCCC2CCCCN2)c2ncccc2c1OC` (stereo unspecified), for which the GI50 in assay [1] was 22.8 µM; in [2] it was 19.4 µM; in assay [4], 21.2 µM; in assay [5], 14.5 µM; in assay [6] it was 13 µM; in [7], 16.5 µM. Moreover, the values for the GI50 in [8], in assay [9] and in assay [10] were 2.23 µM, 2.91 µM and 16.9 µM, respectively. In addition, the TGI in assay [1] amounted to 38.5 µM; in assay [2], 41.9 µM; in assay [4] it was 89.9 µM; in assay [5], 36.9 µM; in [6], 33.6 µM; in [7] it was 36.3 µM. For the same molecule, the TGI in assay [8] turned out to be 6.77 µM; in assay [9], 14.4 µM; in assay [10] it was 31.8 µM.
On to `O=c1[nH]c2ccccc2n1C1CCN(CCOc2ccccc2)CC1`, for which the GI50 in [1] was 45 µM; in assay [2] it was 58.3 µM; in assay [4], 40.4 µM; in [5], 43.9 µM; in [6], 35.8 µM; in [7], 25.4 µM. For the same molecule, the GI50 in assay [8] was 34.3 µM; in [9], 15.7 µM; in assay [10], 26.9 µM. The TGI in assay [1], in [2], in assay [4], in assay [5], in [6] and in assay [7] was greater than 100 µM throughout. Further, the TGI in assay [8], in assay [9] and in assay [10] was greater than 100 µM each time.
For `COc1ccc(C(Nc2ccccn2)c2cc(C(C)(C)C)cc(C(C)(C)C)c2O)cc1` (stereo unspecified), the TGI was 38.6 µM in [1]; greater than 100 µM in assay [2]; greater than 100 µM in assay [4]; greater than 100 µM in assay [5]; greater than 100 µM in assay [6]; 54.9 µM in assay [7]. Besides, the TGI was greater than 100 µM in assay [8], 76.4 µM in [9] and 38.7 µM in assay [10].
For the molecule `CC[P+]1(c2ccccc2)CCCCC1`, the TGI in assay [1], in [2], in assay [3], in assay [4], in [5] and in [6] was greater than 100 µM in each case. In addition, the TGI in [7], in [8] and in assay [10] was greater than 100 µM each time.
`CN(C)CCNC(=O)c1cccc2c1nc(-c1ccncc1)c1ccccc12`: the TGI in assay [1] is 7.55 µM; in assay [2] it was 12.6 µM; in assay [3], greater than 100 µM; in assay [4] it was 10.6 µM; in assay [5], 17.8 µM; in [6] it was 19.4 µM. Also, the TGI in assay [7] was 16.8 µM; in [8], 14.8 µM; in assay [10], 16.7 µM.
Turning to `CNC(=O)NCCN1N=C(C)/C(=C\c2ccccc2)CC1=O`, the TGI in [1], in assay [2], in assay [3], in assay [4], in [5] and in assay [6] was greater than 100 µM in each case. The TGI in [7], in assay [8] and in assay [10] was greater than 100 µM in each case.
`O=C(O)c1cc(Cl)cc(Cc2cc(Cl)cc(C(=O)O)c2O)c1O`: the TGI in [1], in assay [2], in [3], in [4], in assay [5] and in assay [6] was greater than 100 µM each time. Moreover, the TGI in [7], in [8] and in [9] was greater than 100 µM in each case.
Turning to `COc1ccc(NC(=O)c2cccc(C3CCc4c(cc(OC)c(OC)c4OC)O3)c2)cc1` (stereo unspecified), the GI50 in assay [2] is 3.57 µM; in assay [3], 1.6 µM; in assay [4], 4.28 µM; in assay [5], 4.18 µM; in assay [6] it was 3.17 µM; in assay [7] it was 2.6 µM. For the same molecule, the GI50 in [8] was 3.7 µM; in [9] it was 2.49 µM; in assay [10] it was 6.01 µM. Further, the TGI in assay [2], in [3], in assay [4], in assay [5], in assay [6] and in [7] was greater than 100 µM each time. The values for the TGI in [8], in assay [9] and in [10] were greater than 100 µM, 7.48 µM and greater than 100 µM, respectively.
`CCOC(=O)c1cc(C(=O)c2cc(OC)c(OC)c(OC)c2)n2ccc(-c3cc[n+](CC(=O)c4cc(OC)c(OC)c(OC)c4)cc3)cc12`: the GI50 in [1] is 1.66 µM; in assay [2] it was 3.29 µM; in assay [4] it was 3.33 µM; in [5], 1.75 µM; in assay [6], 1.83 µM; in [8], 1.87 µM. The figures for the GI50 in assay [9] and in assay [10] were 1.94 µM and 3.32 µM, respectively. Also, the TGI in assay [1] amounted to 3.48 µM; in [2] it was 6.29 µM; in assay [4] it was 13.6 µM; in [5], 3.39 µM; in assay [6], 3.68 µM; in [8] it was 3.87 µM. Besides, the TGI in [9] turned out to be 4.85 µM; in assay [10] it was 15.1 µM.
As to `N#CCC(=O)Nc1ccccc1O`, the TGI in assay [1], in assay [2], in assay [3], in [4], in [5] and in assay [6] was greater than 100 µM in each case. Moreover, the TGI in assay [7], in assay [8] and in [10] was greater than 100 µM throughout.
With `Cc1cn2c(/C=C3\C(=O)N(C)c4ccc(Cl)cc43)c(C)nc2s1`, the GI50 in assay [2] is 6.88 µM; in assay [3], 2.74 µM; in assay [4], 4.62 µM; in assay [5], 4.92 µM; in assay [6] it was 1.9 µM; in [7] it was 3.3 µM. The GI50 in assay [8] is 5.24 µM; in assay [9], greater than 100 µM; in assay [10], 2.61 µM. For the same molecule, the TGI was found to be 32.9 µM in assay [2]; 10.1 µM in assay [3]; 32.6 µM in [4]; 21.7 µM in assay [5]; 12 µM in assay [6]; 32.1 µM in assay [7]. Moreover, the TGI in assay [8] is greater than 100 µM; in assay [9] it was greater than 100 µM; in assay [10], 6.18 µM.
On to `Cc1ccc2c(c1)C(O)(c1ccccc1)CCS2` (stereo unspecified), for which the TGI in assay [1] is greater than 100 µM; in assay [2] it was greater than 100 µM; in [4] it was 62.6 µM; in assay [5], greater than 100 µM; in assay [6] it was 66 µM; in [7] it was 66.9 µM. Moreover, the TGI in assay [8] and in assay [9] was greater than 100 µM in each case.
Take `Cc1cn(C2CC(O)C(COC(N)=O)O2)c(=O)[nH]c1=O` (stereo unspecified): the TGI in [1], in [2], in assay [3], in [4], in assay [5] and in assay [6] was greater than 100 µM each time. In addition, the TGI in assay [7], in assay [8] and in assay [9] was greater than 100 µM throughout.
